In patent US20260041744A1, “Methods for Treating Pompe Disease” (Amicus Therapeutics, Inc., priority 2022, published 2026):
“Also recorded” adds a separate entry of the source.

Legend:
[1] = target: ATB200 (Homo sapiens, UniProt P10253); assay: Thermostability assay using SYPRO Orange
[2] = Cipaglucosidase alfa pharmacokinetics in ERT-experienced adult patients with LOPD; type: in vivo, human
[3] = system: adult subjects with LOPD; assay: Study ATB200-07 (OLE): sitting % predicted FVC; type: in vivo, human; conditions: Study ATB200-03/07, excluding the outlier
Text: (§1) The study doses and schedule are maintained from Study ATB200-03.
(§2) Efficacy data are presented in this summary as change from the baseline of Study ATB200-03 (OLE-ES Population).

[4] = system: Pompe patient fibroblasts; assay: Cellular uptake into Pompe patient fibroblasts (20 nM rhGAA, 18-hr); type: cell-based, human
Procedure: The relative cellular uptake into Pompe patient fibroblasts of dephosphorylated cipaglucosidase alfa compared to mock-treated cipaglucosidase alfa and mock-treated alglucosidase alfa was assessed. Comparisons at a concentration of 20 nM of rhGAA was used to mimic the interstitial concentration of cipaglucosidase alfa that crosses into tissues, as shown in FIG. 77A. After an 18-hr incubation for enzyme uptake, cells were washed for 2 hours, harvested, lysed, and then processed for GAA activity and western blot analysis. Internalized GAA measured by 4MU-a-Glucoside hydrolysis and was graphed relative to total cellular protein and the results appear in FIG. 77B.
However, cell uptake of PAP-treated cipaglucosidase alfa is abolished.

[5] = target: T1, CIMPR (Homo sapiens, UniProt P11717); assay: CIMPR plate binding assay
T1 sequence (P11717 41-2491, species assumed): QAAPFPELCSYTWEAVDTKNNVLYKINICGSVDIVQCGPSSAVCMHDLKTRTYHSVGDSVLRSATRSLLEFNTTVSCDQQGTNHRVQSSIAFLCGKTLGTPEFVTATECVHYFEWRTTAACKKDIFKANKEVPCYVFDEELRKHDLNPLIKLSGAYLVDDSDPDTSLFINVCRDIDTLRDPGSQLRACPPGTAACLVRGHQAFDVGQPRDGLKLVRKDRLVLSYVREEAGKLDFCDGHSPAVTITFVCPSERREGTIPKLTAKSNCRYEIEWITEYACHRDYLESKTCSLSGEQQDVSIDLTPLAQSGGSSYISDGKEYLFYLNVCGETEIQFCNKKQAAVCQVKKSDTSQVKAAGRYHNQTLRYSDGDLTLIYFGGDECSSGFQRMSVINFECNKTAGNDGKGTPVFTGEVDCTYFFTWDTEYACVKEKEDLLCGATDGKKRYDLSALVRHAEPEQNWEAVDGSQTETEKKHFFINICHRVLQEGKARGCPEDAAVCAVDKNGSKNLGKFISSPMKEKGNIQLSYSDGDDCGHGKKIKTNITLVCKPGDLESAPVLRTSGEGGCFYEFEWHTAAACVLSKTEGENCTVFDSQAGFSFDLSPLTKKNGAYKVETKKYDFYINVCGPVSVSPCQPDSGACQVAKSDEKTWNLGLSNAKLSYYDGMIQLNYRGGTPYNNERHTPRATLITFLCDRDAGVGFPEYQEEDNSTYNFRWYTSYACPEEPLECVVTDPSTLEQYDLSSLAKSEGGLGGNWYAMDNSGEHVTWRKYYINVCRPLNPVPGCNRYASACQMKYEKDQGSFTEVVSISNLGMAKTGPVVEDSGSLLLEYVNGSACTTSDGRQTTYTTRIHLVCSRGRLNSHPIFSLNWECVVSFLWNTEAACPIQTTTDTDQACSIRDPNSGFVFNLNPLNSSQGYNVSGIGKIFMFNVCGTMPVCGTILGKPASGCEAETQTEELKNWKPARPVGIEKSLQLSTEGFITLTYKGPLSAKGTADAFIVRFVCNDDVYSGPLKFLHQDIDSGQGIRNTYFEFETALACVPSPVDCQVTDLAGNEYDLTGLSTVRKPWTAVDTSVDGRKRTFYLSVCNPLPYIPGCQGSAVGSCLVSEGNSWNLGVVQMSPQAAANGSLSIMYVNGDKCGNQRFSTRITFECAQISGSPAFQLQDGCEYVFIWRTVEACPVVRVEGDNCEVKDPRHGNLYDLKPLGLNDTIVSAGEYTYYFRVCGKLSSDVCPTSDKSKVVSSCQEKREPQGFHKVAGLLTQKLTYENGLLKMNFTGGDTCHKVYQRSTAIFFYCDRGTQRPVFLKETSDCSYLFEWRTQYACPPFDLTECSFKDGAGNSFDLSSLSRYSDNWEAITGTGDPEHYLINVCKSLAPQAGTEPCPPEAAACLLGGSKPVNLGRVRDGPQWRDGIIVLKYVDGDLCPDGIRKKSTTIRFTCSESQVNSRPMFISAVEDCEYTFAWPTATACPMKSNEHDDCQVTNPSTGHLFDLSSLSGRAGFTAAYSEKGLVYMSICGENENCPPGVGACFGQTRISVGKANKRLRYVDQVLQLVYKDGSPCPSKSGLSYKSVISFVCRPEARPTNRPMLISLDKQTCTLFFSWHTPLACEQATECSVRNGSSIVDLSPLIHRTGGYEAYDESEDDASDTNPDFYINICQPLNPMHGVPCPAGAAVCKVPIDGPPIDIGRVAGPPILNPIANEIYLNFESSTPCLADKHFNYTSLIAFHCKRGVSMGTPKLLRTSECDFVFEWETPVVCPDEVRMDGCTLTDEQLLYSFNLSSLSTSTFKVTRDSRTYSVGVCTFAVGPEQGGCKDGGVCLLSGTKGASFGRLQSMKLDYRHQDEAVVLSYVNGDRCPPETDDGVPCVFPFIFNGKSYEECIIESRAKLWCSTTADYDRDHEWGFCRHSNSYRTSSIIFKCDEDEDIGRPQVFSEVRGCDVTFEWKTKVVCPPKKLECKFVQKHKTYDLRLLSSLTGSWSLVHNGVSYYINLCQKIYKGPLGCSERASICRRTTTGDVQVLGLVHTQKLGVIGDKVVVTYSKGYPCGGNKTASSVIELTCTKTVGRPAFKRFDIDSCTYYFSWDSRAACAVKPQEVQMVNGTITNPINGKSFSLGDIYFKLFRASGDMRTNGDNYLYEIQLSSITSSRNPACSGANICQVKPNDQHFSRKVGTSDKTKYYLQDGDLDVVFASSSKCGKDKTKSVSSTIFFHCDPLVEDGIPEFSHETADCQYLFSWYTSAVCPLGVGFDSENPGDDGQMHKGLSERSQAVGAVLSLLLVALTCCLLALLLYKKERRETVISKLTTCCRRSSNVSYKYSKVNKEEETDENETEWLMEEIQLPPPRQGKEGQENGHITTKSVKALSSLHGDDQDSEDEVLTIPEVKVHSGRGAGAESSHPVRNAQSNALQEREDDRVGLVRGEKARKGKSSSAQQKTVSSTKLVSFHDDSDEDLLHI
Procedure: In addition to having a greater percentage of rhGAA that can bind to the CIMPR, it is important to understand the quality of that interaction. LUMIZYME® and ATB200 receptor binding was determined using a CIMPR plate binding assay. Briefly, CIMPR-coated plates were used to capture GAA. Varying concentrations of rhGAA were applied to the immobilized receptor and unbound rhGAA was washed off. The amount of remaining rhGAA was determined by GAA activity.
N-glycan analysis via MALDI-TOF mass spectrometry confirmed that on average each ATB200 molecule contains at least one natural bis-M6P N-glycan structure.

[6] = system: Gaa KO mice; assay: Single fiber analysis (LAMP1/LC3 co-immunofluorescence, white gastrocnemius); type: in vivo, mouse; conditions: single fibers
Text: FIG. 17 depicts co-immunofluorescent staining of LAMP1 (green) (see for example, “B”) and LC3 (red) (see, for example, “A”) in single fibers isolated from the white gastrocnemius of Gaa KO mice treated with a vehicle, alglucosidase alfa, or ATB200. “C” depicts clearance of autophagic debris and absence of enlarged lysosome. A minimum of 30 fibers were examined from each animal.
As a result, a significant portion of muscle fibers analyzed (36-60%) from ATB200-treated mice appeared normal or near-normal.

[7] = system: normal and Pompe fibroblast cell lines; assay: Cellular uptake of rhGAA into fibroblasts (16-hr incubation, internalized GAA by 4MU-α-Glucoside hydrolysis); type: cell-based, human
Procedure: The relative cellular uptake of ATB200 and LUMIZYME® rhGAA were compared using normal and Pompe fibroblast cell lines. Comparisons involved 5-100 nM of ATB200 according to the disclosure with 10-500 nM conventional rhGAA product LUMIZYME®. After 16-hr incubation, external rhGAA was inactivated with TRIS base and cells were washed 3-times with PBS prior to harvest. Internalized GAA measured by 4MU-α-Glucoside hydrolysis and was graphed relative to total cellular protein and the results appear in FIGS. 11A-11C.
ATB200 was also shown to be efficiently internalized into cells. […] ATB200 saturates cellular receptors at about 20 nM, while about 250 nM of LUMIZYME® is needed to saturate cellular receptors.

[8] = target: T1, CIMPR; assay: CIMPR Overlay Assay (far-western blot); type: binding
Procedure: The CIMPR Overlay Assay is a variation on a far-western blot where proteins are separated on an SDS-PAGE, transferred to a nitrocellulose membrane, and incubated with purified CIMPR in the place of a primary antibody as in a conventional western blot. Binding of CIMPR to M6P-containing glycans on rhGAA proteins is then visualized by an anti-CIMPR antibody.

[9] = system: adults with Pompe disease; assay: Study ATB200-02 (20 mg/kg cipaglucosidase alfa IV + 260 mg miglustat): 6MWT (6MWD, % predicted 6MWD); type: in vivo, human;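 also: Open-label Phase I/II trial, ambulatory cohorts only, values are changes from baseline or counts relative to the baseline walk test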
[10] = system: 4MU-a-Glucoside hydrolysis (GAA activity); assay: GAA enzyme activity by 4MU-a-Glucoside hydrolysis after PAP treatment; type: biochemical, human; conditions: PAP 18 hours
Procedure: Removal of phosphoesters mono- and bis-M6P was completed by the enzyme purple acid phosphatase (PAP). PAP hydrolyzes phosphate esters and anhydrides. […] Cipaglucosidase alfa was treated with PAP for 18 hours, and alglucosidase alfa in the same reaction conditions but without PAP addition was used as a mock-treated control. PAP treatment results in complete removal of the bis-M6P peak and nearly all of the mono-M6P peak from the cipaglucosidase alfa LC-FLD chromatogram. Additional peaks are clearly observed in the neutral high mannose glycan region resulting from the removal of phosphates from mono- and bis-phosphorylated high mannose glycans.

[11] = system: animals; conditions: in vivo
Text: It is not known whether miglustat is secreted in breast milk. A risk to newborns/breastfed infants cannot be ruled out. The developmental and health benefits of breastfeeding should be considered, as well as the clinical need for the mother to receive co-administration therapy with cipaglucosidase alfa and miglustat, and any adverse reactions experienced by the breastfed child potentially related to the co-administration of cipaglucosidase alfa and miglustat or the underlying maternal condition. In some embodiments, breastfeeding is not allowed while taking cipaglucosidase alfa and miglustat. There are no clinical data on the effects of co-administration therapy of cipaglucosidase alfa and miglustat on fertility.

[12] = system: adult subjects with LOPD; assay: Study ATB200-07 (OLE of PROPEL): 6MWD and % predicted 6MWD; type: in vivo, human; conditions: Study ATB200-03/07, excluding the outlier
Text: as §1, §2

[13] = human, in vivo
Text: Blood sampling for plasma GAA protein and miglustat concentrations were taken for cohort 1 (ERT-experienced) and cohort 3 (ERT-naïve) only. To prevent any undue burden on patients, blood sampling for PK was not performed for non-ambulatory patients (cohort 2) and, due to similarity to cohort 1, those in cohort 4.

[14] = system: Gaa KO mice; assay: Muscle fiber size (minimum Feret's diameter) in quadriceps, 12 biweekly injections; type: in vivo, mouse; conditions: 20 mg/kg, 12 biweekly bolus injections
Procedure: FIG. 78 is a graph showing the effect of long-term cipaglucosidase alfa administration (20 mg/kg, 12 biweekly bolus injections) versus alglucosidase alfa on muscle fiber size by mean minimum fiber diameter (FD) in Gaa KO mouse quadriceps.
Gaa mice, like patients with Pompe disease, show a decrease in muscle fiber size as a consequence of muscle atrophy.

[15] = system: adults with Pompe disease; assay: Study ATB200-02: sitting % predicted FVC
[16] = 20 mg/kg in combination with Miglustat 260 mg
[17] = ERT-experienced, Study ATB200-02, Cohort 1 and 4 combined
[18] = ERT-naïve, Study ATB200-02, Cohort 3
[19] = ERT-experienced, Study ATB200-02

Kd ([5]; M6P receptor plate binding assays): 2 to 4 nM
Substance: ATB200: recombinant human acid α-glucosidase with a high content of N-glycans bearing mono-M6P and bis-M6P, produced from GA-ATB200 CHO cell line
Tm ([1]; pH 5.2): 67.3 °C | Tm ([1]; pH 7.4): 56.2 °C | Tm ([1]; pH 7.4 + 10 μM miglustat): 61.6 °C | Tm ([1]; pH 7.4 + 30 μM miglustat): 62.9 °C | Tm ([1]; pH 7.4 + 100 μM miglustat): 66.0 °C | AUC0-inf, mean [2, 16]: 1812 µg·h/mL | Cmax, mean [2, 16]: 345 µg/mL | AUC0-inf, mean ([2]; 20 mg/kg without Miglustat): 1410 µg·h/mL | Cmax, mean ([2]; 20 mg/kg without Miglustat): 325 µg/mL | % Predicted FVC Baseline Mean ([3]; ERT-experienced): 67.7 % predicted | % Predicted FVC CFBL M12 (W 52) Mean ([3]; ERT-experienced): 0.1 % predicted | % Predicted FVC CFBL M24 (W 104) Mean ([3]; ERT-experienced): −0.6 % predicted | % Predicted FVC Baseline Mean ([3]; ERT-naïve): 80.2 % predicted | % Predicted FVC CFBL M12 (W 52) Mean ([3]; ERT-naïve): −4.7 % predicted | % Predicted FVC CFBL M24 (W 104) Mean ([3]; ERT-naïve): −4.8 % predicted | cellular uptake into Pompe fibroblasts [4]: better cellular uptake compared to alfaglucosidase alfa | CIMPR binding compared with LUMIZYME ([5]; CIMPR-coated plates): bound to CIMPR significantly better than LUMIZYME® | Fibers with Normal or Near-normal Appearance [6]: 36-60% | Lysosome Enlargement [6]: dramatically decreased lysosome size; also recorded: Dramatic size | uptake efficiency constant (Kuptake) ([7]; extrapolated from uptake curves): 2-3 nm | internalization into fibroblasts ([7]; normal and Pompe fibroblast cells): internalized to a greater degree than the conventional rhGAA product LUMIZYME® | rhGAA concentration that saturates cellular receptors ([7]; normal and Pompe fibroblasts): about 20 nM | CIMPR binding in overlay assay [8]: binds with high affinity to CIMPR as shown by an intense band | 6MWD Baseline, Mean [9, 17]: 393.5 | 6MWD CFBL M12 (W 52) Mean [9, 17]: 33.5 | 6MWD CFBL M24 (W 104) Mean [9, 17]: 25.2 | 6MWD Baseline, Mean [9, 18]: 396.0 | 6MWD CFBL M12 (W 52) Mean [9, 18]: 57.0 | 6MWD CFBL M24 (W 104) Mean [9, 18]: 54.4 | enzyme activity after PAP treatment [10]: retaining the enzyme activity | excretion in milk [11]: excretion of cipaglucosidase alfa in milk | fertility, preclinical data [11]: did not reveal any significant adverse reactions | 6MWD Baseline, Mean ([12]; ERT-experienced): 342.4 | 6MWD CFBL M12 (W 52) Mean ([12]; ERT-experienced): 16.3 | 6MWD CFBL M24 (W 104) Mean ([12]; ERT-experienced): 14.2 | 6MWD Baseline, Mean ([12]; ERT-naïve): 393.6 | 6MWD CFBL M12 (W 52) Mean ([12]; ERT-naïve): 33.4 | 6MWD CFBL M24 (W 104) Mean ([12]; ERT-naïve): 38.8 | median time of peak signature peptide T09 concentrations (tmax) [13]: approximately 4 hours | muscle fiber size vs alglucosidase alfa [14]: significantly improved muscle fiber size | % Predicted FVC Baseline Mean [15, 19]: 57.4 % predicted | % Predicted FVC CFBL M12 (W 52) Mean [15, 19]: −1.2 % predicted | % Predicted FVC CFBL M24 (W 104) Mean [15, 19]: 1.0 % predicted | % Predicted FVC Baseline Mean [15, 18]: 57.2 % predicted | % Predicted FVC CFBL M12 (W 52) Mean [15, 18]: 3.2 % predicted | % Predicted FVC CFBL M24 (W 104) Mean [15, 18]: 4.7 % predicted
